Holding throughout (assay type): cell-based
For experiment [1], the target named is T1, hPPARδ (LBD) (Homo sapiens, UniProt Q03181).
T1 construct: A receptor expression plasmid (pSG5-GAL4-hPPARα or γ or δ (LBD)); GAL4 (fusion partner); expressed in transfected cells; host or cells: CV-1 cells (ATCC)
T1 sequence (Q03181 211-439 limits assumed): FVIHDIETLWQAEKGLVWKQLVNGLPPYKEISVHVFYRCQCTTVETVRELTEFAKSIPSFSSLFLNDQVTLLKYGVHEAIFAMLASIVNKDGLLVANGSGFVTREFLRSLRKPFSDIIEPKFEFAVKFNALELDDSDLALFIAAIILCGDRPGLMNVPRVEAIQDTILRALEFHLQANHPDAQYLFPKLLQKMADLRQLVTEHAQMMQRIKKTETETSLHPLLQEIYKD
The experiment is described as follows: PPAR activating effect, GAL4-hPPARδ LBD luciferase reporter transfection in CV-1 cells. Details: activation: dose or concentration left out as unconfirmed. To be noted: for activation at 0.1 µM / activation: CV-1, 40 h, read-out: PPAR activity δ (relative value to control compound); for pEC50: Table 25, method of Example 29, read-out: PPAR activity (EC50) δ; for selectivity of PPAR δ-activating effect: compared with GW-501516, from EC50 α, γ, δ of Table 25.

The target of experiment [2] is T2, hPPARα (LBD) (Homo sapiens, UniProt Q07869).
T2 construct: A receptor expression plasmid (pSG5-GAL4-hPPARα or γ or δ (LBD)); GAL4 (fusion partner); expressed in transfected cells; host or cells: CV-1 cells (ATCC)
T2 sequence (Q07869 239-466 limits assumed): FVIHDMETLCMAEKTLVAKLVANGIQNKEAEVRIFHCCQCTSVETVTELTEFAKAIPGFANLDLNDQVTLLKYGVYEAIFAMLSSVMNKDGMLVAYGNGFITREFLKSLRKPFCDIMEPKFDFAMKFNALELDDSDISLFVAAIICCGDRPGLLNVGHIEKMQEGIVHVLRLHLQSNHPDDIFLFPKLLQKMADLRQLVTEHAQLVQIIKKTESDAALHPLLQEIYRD
In words: PPAR activating effect, GAL4-hPPARα LBD luciferase reporter transfection in CV-1 cells. To be noted: for PPAR activity α (relative value to control compound): 100% = GW-590735 10^-6 M; for pEC50: Table 25, method of Example 29, read-out: PPAR activity (EC50) α. In general terms: In a reporter assay the amount or activity of a reporter protein is the signal.

For experiment [3], the target named is T3, hPPARγ (LBD) (Homo sapiens, UniProt P37231).
T3 construct: A receptor expression plasmid (pSG5-GAL4-hPPARα or γ or δ (LBD)); GAL4 (fusion partner); expressed in transfected cells; host or cells: CV-1 cells (ATCC)
T3 sequence (P37231 238-503 limits assumed): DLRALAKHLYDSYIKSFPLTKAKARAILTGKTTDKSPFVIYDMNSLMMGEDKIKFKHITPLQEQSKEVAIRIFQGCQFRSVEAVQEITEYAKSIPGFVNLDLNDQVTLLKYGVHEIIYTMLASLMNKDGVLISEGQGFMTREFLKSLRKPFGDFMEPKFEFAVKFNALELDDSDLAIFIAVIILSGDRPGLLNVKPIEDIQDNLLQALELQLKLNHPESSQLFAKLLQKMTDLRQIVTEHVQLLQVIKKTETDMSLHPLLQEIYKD
The experiment is described as follows: PPAR activating effect, GAL4-hPPARγ LBD luciferase reporter transfection in CV-1 cells. To be noted: for pEC50: Table 25, method of Example 29, read-out: PPAR activity (EC50) γ.

Where [4] appears, read: Table 26, test compound 10^-7 M.
Setting [5] is: Table 26, test compound 10^-7 M, 100% = Rosiglitazone 10^-5 M.
[6] abbreviates: Table 24, CV-1 cells, approx. 40 h.
The mark [7] stands for this setting: Table 24, 100% = Rosiglitazone 10^-5 M, CV-1 cells, approx. 40 h.

pEC50: −log10 of the molar value. Read-outs that look alike come from different tables or passages of the source.

As a reminder, the pEC50 is the EC50 on a negative log10 scale, so that one unit is a factor of ten.

Regarding `CCCc1c(CCC(=NO)c2cc(C)c(OCC(=O)O)cc2O)sc2cc(C(F)(F)F)ccc12` [Example 23, 5-Hydroxy-4-[1-hydroxyimino-3-[3-propyl-6-(trifluoromethyl)benzothiophen-2-yl]propyl]-2-methyl-phenoxyacetic acid], in experiment [1], the activation at 0.1 µM is 5.1%. Moreover, the “PPAR activity α (relative value to control compound)” value in experiment [2] (setting [4]) is recorded as “Inactive”. In addition, the “PPAR activity γ (relative value to control compound)” value in experiment [3] (setting [5]) is “Inactive”.
Regarding `C=C(CCc1sc2cc(C(F)(F)F)ccc2c1C(C)C)c1ccc(CCC(=O)O)c(C)c1` [Example 14, 3-[4-[1-[2-[3-Isopropyl-6-(trifluoromethyl)-benzothiophen-2-yl]ethyl]vinyl]-2-methylphenyl]propionic acid], in experiment [1], the activation is 73%. For the same molecule, the “PPAR activity α (relative value to control compound)” value in experiment [2] (setting [6]) is “Inactive”. For the same molecule, the “PPAR activity γ (relative value to control compound)” value in experiment [3] (setting [7]) is on record as “Inactive”.
On to `Cc1cc(C(=O)CCc2sc3cc(C(F)(F)F)ccc3c2CC(C)C)ccc1CCC(=O)O` [Example 11, 3-[2-Methyl-4-[3-[3-isobutyl-6-(trifluoromethyl)benzothiophen-2-yl]propionyl]phenyl]propionic acid], for which the activation in experiment [1] stood at 60.9%. The “PPAR activity α (relative value to control compound)” value in experiment [2] (setting [6]) is recorded as “Inactive”. Besides, the “PPAR activity γ (relative value to control compound)” value in experiment [3] (setting [7]) is given as “Inactive”.
On to `CON=C(CCc1sc2cc(C(F)(F)F)ccc2c1C(C)C)c1ccc(OCC(=O)O)c(C)c1` [Example 17, 4-[3-[3-Isopropyl-6-(trifluoromethyl)benzothiophen-2-yl]-1-methoxyiminopropyl]-2-methylphenoxyacetic acid], for which, in experiment [1], the activation is 45.9%. Besides, the “PPAR activity α (relative value to control compound)” value in experiment [2] (setting [6]) was “Inactive”. In experiment [3] (setting [7]), the “PPAR activity γ (relative value to control compound)” value is listed as “Inactive”.
Turning to `CCCc1c(CCC(=O)c2cc(C)c(OCC(=O)O)cc2O)sc2cc(C(F)(F)F)ccc12` [Example 22], the “PPAR activity α (relative value to control compound)” value in experiment [2] (setting [4]) is reported as “Inactive”. For the same molecule, the “PPAR activity γ (relative value to control compound)” value in experiment [3] is “Inactive”.
`Cc1cc(C(=O)CCc2sc3ccc(C(F)(F)F)cc3c2C)ccc1OCC(=O)O` [Example 3, 2-Methyl-4-[3-[3-methyl-5-(trifluoromethyl)-benzothiophen-2-yl]propionyl]phenoxyacetic acid]: the activation in experiment [1] came to 4.4%. Also, the “PPAR activity α (relative value to control compound)” value in experiment [2] (setting [6]) is “Inactive”. Further, the “PPAR activity γ (relative value to control compound)” value in experiment [3] (setting [7]) is given as “Inactive”.
As to `Cc1cc2c(CCc3sc4cc(C(F)(F)F)ccc4c3C(C)C)noc2cc1OCC(=O)O` [Example 19, [3-[2-[3-Isopropyl-6-(trifluoromethyl)benzothiophen-2-yl]-ethyl]-5-methyl-benzisoxazol-6-yloxy]acetic acid], in experiment [1], the activation was 91.7%. Also, the pEC50 in experiment [1] (CV-1 cells) is 8.32; in experiment [2] (CV-1 cells) it was below 5.00; in experiment [3] (CV-1 cells), below 5.00. Further, in experiment [1], the “selectivity of PPAR δ-activating effect” value is listed as “superior to that of the GW-501516”. Further, the “PPAR activity α (relative value to control compound)” value in experiment [2] (setting [6]) was “Inactive”. In experiment [3] (setting [7]), the “PPAR activity γ (relative value to control compound)” value is “Inactive”.
Take `Cc1cc(C(=O)CCc2sc3cc(C(F)(F)F)ccc3c2C)ccc1OC(C)(C)C(=O)O` [Example 6]: in experiment [1] (Table 24, 100% = GW-501516 10^-7 M, CV-1 cells, approx. 40 h), the “PPAR activity δ (relative value to control compound)” value was found to be 40.8%. For the same molecule, the “PPAR activity α (relative value to control compound)” value in experiment [2] (setting [6]) was “Inactive”. Further, the “PPAR activity γ (relative value to control compound)” value in experiment [3] is “Inactive”.
With `CCCc1c(CCC(=O)c2ccc(CCC(=O)O)c(C)c2)sc2cc(C(F)(F)F)ccc12` [Example 9, 3-[2-Methyl-4-[3-[3-propyl-6-(trifluoromethyl)benzothiophen-2-yl]propionyl]phenyl]propionic acid], the activation in experiment [1] came out at 83.5%. Besides, the “PPAR activity α (relative value to control compound)” value in experiment [2] (setting [6]) was “Inactive”. Moreover, the “PPAR activity γ (relative value to control compound)” value in experiment [3] (setting [7]) amounted to 1.3%.
On to `Cc1cc2c(CCc3sc4cc(C(F)(F)F)ccc4c3C(C)C)noc2cc1CCC(=O)O` [Example 21, 3-[3-[2-[3-Isopropyl-6-(trifluoromethyl)benzothiophen-2-yl]-ethyl]-5-methylbenzisoxazol-6-yl]propionic acid], for which the activation in experiment [1] was determined as 94.2%. Further, the pEC50 in experiment [1] (CV-1 cells) was 8.89; in experiment [2] (CV-1 cells), below 5.00; in experiment [3] (CV-1 cells), below 5.00. Moreover, the “selectivity of PPAR δ-activating effect” value in experiment [1] is “superior to that of the GW-501516”. Besides, the “PPAR activity α (relative value to control compound)” value in experiment [2] (setting [6]) was “Inactive”. Further, the “PPAR activity γ (relative value to control compound)” value in experiment [3] (setting [7]) is recorded as “Inactive”.
On to “2-[3-[2-[3-Isopropyl-6-(trifluoromethyl)benzothiophen-2-yl]ethyl]benzisoxazol-6-yloxy]propionic acid [Example 27]”, for which the “PPAR activity α (relative value to control compound)” value in experiment [2] (setting [4]) is on record as “Inactive”. The “PPAR activity γ (relative value to control compound)” value in experiment [3] (setting [5]) is reported as “Inactive”.
For the molecule `Cc1cc(C(=O)CCc2sc3cc(C(F)(F)F)ccc3c2C(C)C)ccc1OCC(=O)O` [Example 15, 4-[3-[3-Isopropyl-6-(trifluoromethyl)benzothiophen-2-yl]-propionyl]-2-methylphenoxyacetic acid], the activation in experiment [1] is 77.4%. Moreover, the “PPAR activity α (relative value to control compound)” value in experiment [2] (setting [6]) was “Inactive”. In addition, in experiment [3] (setting [7]), the “PPAR activity γ (relative value to control compound)” value was “Inactive”.
For the molecule `Cc1cc(C(=O)CCc2sc3ccc(C(F)(F)F)cc3c2C)ccc1OC(C)(C)C(=O)O` [Example 4, 2-Methyl-2-[2-methyl-4-[3-[3-methyl-5-(trifluoromethyl)-benzothiophen-2-yl]propionyl]phenoxy]propionic acid], the activation in experiment [1] stood at 19.2%. The “PPAR activity γ (relative value to control compound)” value in experiment [3] (setting [7]) stood at 9.0%.
Consider `Cc1cc(C(=O)CCc2sc3cc(C(F)(F)F)ccc3c2C)ccc1CCC(=O)O` [Example 7, 3-[4-[3-[3-Methyl-6-(trifluoromethyl)-benzothiophen-2-yl]propionyl]-2-methylphenyl]propionic acid], for which the activation in experiment [1] came out at 51.4%. The “PPAR activity α (relative value to control compound)” value in experiment [2] (setting [6]) is recorded as “Inactive”. Besides, the “PPAR activity γ (relative value to control compound)” value in experiment [3] (setting [7]) was “Inactive”.
On to `Cc1cc(C(=O)CCc2sc3cc(C(F)(F)F)ccc3c2C)ccc1OCC(=O)O` [Example 5, 2-Methyl-4-[3-[3-methyl-6-(trifluoromethyl)-benzothiophen-2-yl]propionyl]phenoxyacetic acid], for which the activation in experiment [1] stood at 23%. Further, the “PPAR activity α (relative value to control compound)” value in experiment [2] (setting [6]) is given as “Inactive”. In addition, the “PPAR activity γ (relative value to control compound)” value in experiment [3] (setting [7]) is “Inactive”.
Take `CCCCc1c(CCC(=O)c2ccc(CCC(=O)O)c(C)c2)sc2cc(C(F)(F)F)ccc12` [Example 10, 3-[2-Methyl-4-[3-[3-butyl-6-(trifluoromethyl)benzothiophen-2-yl]propionyl]phenyl]propionic acid]: the activation in experiment [1] came to 66.1%. In addition, in experiment [2] (setting [6]), the “PPAR activity α (relative value to control compound)” value is reported as “Inactive”. For the same molecule, the “PPAR activity γ (relative value to control compound)” value in experiment [3] (setting [7]) is recorded as 2.2%.
The matching figures for `Cc1cc(C(=O)CCc2sc3cc(C(F)(F)F)ccc3c2C(C)C)ccc1CCC(=O)O` [Example 12, 3-[2-methyl-4-[3-[3-isopropyl-6-(trifluoromethyl)benzothiophen-2-yl]propionyl]phenyl]propionic acid]: 87.3%, “Inactive” and “Inactive”.
`CCCc1c(CCc2noc3cc(CCC(=O)O)c(C)cc23)sc2cc(C(F)(F)F)ccc12` [Example 26, 3-[5-Methyl-3-[2-[3-propyl-6-(trifluoromethyl)benzothiophen-2-yl]ethyl]benzisoxazol-6-yl]propionic acid]: the activation at 0.1 µM in experiment [1] is 88.8%. For the same molecule, the “PPAR activity α (relative value to control compound)” value in experiment [2] (setting [4]) is listed as “Inactive”. Moreover, the “PPAR activity γ (relative value to control compound)” value in experiment [3] (setting [5]) is on record as “Inactive”.
Regarding `Cc1cc2c(CCc3sc4cc(C(F)(F)F)ccc4c3C(C)C)noc2cc1N(C)CC(=O)O` [Example 20, N-[3-[2-[3-Isopropyl-6-(trifluoromethyl)benzothiophen-2-yl]ethyl]-5-methylbenzisoxazol-6-yl]-N-methylglycine], in experiment [1], the activation amounted to 88%. Further, the “PPAR activity γ (relative value to control compound)” value in experiment [3] (setting [7]) was “Inactive”.

These data come from patent publication US8648208B2, “Activating agent for peroxisome proliferator activated receptor” (Nippon Chemiphar Co. Ltd., priority 2008, dated 2014).
